No end group written: not given here.
Test system: SK-N-SH human neuroblastoma cells
Test: MTT toxicity assay
Settings: four day MTT cytotoxicity assay

GKLVFFA-NH2 [GKLVFFA]
concentration at which toxicity was exhibited in MTT assay: 100 µM

Reference: patent US9364449B2, “Peptoid and synthetic oligomers, pharmaceutical compositions and methods of using same” (New York University, priority 2011, dated 2016)
